The text below walks through data of patent US20250057864A1, “COMPOSITION FOR IMPROVING EXERCISE PERFORMANCE COMPRISING GYPENOSIDE COMPOUND AS ACTIVE INGREDIENT” (BTC CORPORATION, priority 2022, published 2025).

Test [1] relates to MHC1, MHC7, MHC2A, MHC2B, PGC-1α, PKB, FNDC5 in C2C12 cells. Nature of the test: mRNA expression of genes related with muscular strength type in C2C12 cells. In kind it is cell-based, mice. The note with it: C2C12, 0.36 μg/mL (Cr 5 μg/mL), control G1 = 1.00. As to the method:
C2C12 cells were dispensed into a 6-well plate at 2×10^5 cells/well and stabilized for 24 hours. In order to investigate the effect of each test substance on muscle cell differentiation, each test substance was added to the myocyte differentiation medium. The cells were cultured for 4 days (mRNA analysis) or 7 days (protein analysis) after exchanging the cell culture medium with the myocyte differentiation medium treated with each test substance, as shown in Table 2.
C2C12 cells were dispensed into a 6-well plate at 2×10^5 cells/well and stabilized for 24 hours. The cells were cultured for 2 or 4 days after replacing the cell culture with a myocyte differentiation medium containing the test substance. After collecting the cells, total RNA was isolated using an RNeasy Plus Mini kit (QIAGEN), and quantified using a micro-volume spectrophotometer (BioSpec-nano, Shimadzu). RNAs with an OD260/280 value greater than 1.8 were used for experiment.
After obtaining cDNA from the total RNA (2 μg) using a HyperScript™ RT master mix kit (GeneAll Biotechnology), real-time PCR was performed using a Rotor-Gene 300 PCR kit (Corbett Research) and a Rotor-Gene™ SYBR Green kit (QIAGEN). Quantitative analysis of the gene expression was performed using the Rotor-Gene 6000 Series System Software program (Corbett Research).
The effect of the compositions according to Examples 1 to 4 on the mRNA expression of MHC1, MHC7, MHC2A and MHC2B, which are responsible for muscular strength type, was investigated.
The result of investigating the effect of the compositions according to Examples 1 to 4 on the mRNA expression of PGC-1α, PKB and FNDC5 on the muscular strength type is shown in Table 10.

Test [2] deals with ICR mice. As to the kind of experiment: Weight-loaded forced swimming test, time to exhaustion. In kind it is in vivo. Conditions: forced swimming with 5% BW load, day 14, oral 7 mg/kg BW. On the procedure:
After an acclimatization period of 1 week, healthy animals were selected and divided into 6 groups of 10 mice per group according to the randomized block design. A normal control group was orally administered with 5% Tween 80-saline, and a composition was orally administered with Creatine monohydrate (Cr) at 75 mg/kg body weight (BW). Test groups (G2 to G5) were orally administered the compositions of Examples 1 to 4 dissolved in drinking water to 7 mg/kg body weight (BW) at regular times for 17 days. Throughout the test period, the experimental animals were given free access to solid feed for experimental animals (Cargill Agri Puna) and drinking water.
Weight-loaded forced swimming test was performed for the experimental animals as follows. A plastic pool (90×45×45 cm) was filled with water at the depth of 35 cm and the temperature of the water was maintained at 25±1° C. After attaching a weight (5% of the body weight of the experimental animal) to the tail, the experimental animal was forced to swim in the pool.
On days 10 and 12 after the administration of the test substance, swimming adaptation exercise was given twice for 15 minutes each. Two days after the final swimming adaptation exercise (on day 14 after the administration of the test substance), forced swim test was performed after fasting the experimental animal for 16 hour, and the time until exhaustion was measured. […]

Test [3] has as its system ICR mice. As to the kind of experiment: Treadmill test: exercise time and exercise capacity until exhaustion. In kind it is in vivo. The note with it: 6 weeks. On the procedure: After an acclimatization period of 1 week, healthy animals were selected and divided into 6 groups according to the randomized block design. The animals were divided into (G1) a non-exercise control group, (G2) a non-exercise+7 mg/kg body weight (BW) Example 1 group, (G3) a non-exercise+7 mg/kg BW Example 2 group, (G4) a non-exercise+7 mg/kg BW Example 3 group, (G5) a non-exercise+7 mg/kg BW Example 4 group, (G6) an exercise control group, (G7) an exercise+7 mg/kg BW Example 1 group, (G8) an exercise+7 mg/kg BW Example 2 group, (G9) an exercise+7 mg/kg BW Example 3 group, (G10) an exercise+7 mg/kg BW Example 4 group, and (G11) an exercise+75 mg/kg BW Cr dose group. Each test group consisted of 10 animals.
The test substance was dissolved in drinking water and administered every day at regular times (2 hours before exercise) for 6 weeks. Throughout the test period, the experimental animals were given free access to solid feed for experimental animals (Cargill Agri Puna) and drinking water.
The endurance exercise of the animals was conducted for 6 weeks using a treadmill for small animals (Exer3/6 Treadmill, Columbus Instruments). The endurance exercise was conducted with 10 degrees of slope at 10 m/min, starting from for 15 minutes in the first week, for 20 minutes in the second week, for 25 minutes in the third week, for 30 minutes in the fourth week, for 35 minutes in the fifth week, and for 40 minutes in the sixth week.
After 6 weeks of the exercise training, in order to evaluate endurance exercise performance, exercise was started with 10 degrees of slope at 10 m/min for 5 minutes, and the intensity of the exercise was increased by 1 m/min every 1 minute up to the highest speed of 25 m/min. The duration of the exercise until exhaustion was measured. The experimental animal was judged to be exhausted if it was unable to run for 10 seconds or longer at the back of the treadmill. The exercise capacity of the experimental animal was calculated as follows.
In order to evaluate the performance of the effect of the test substances on endurance exercise performance, exercise was started with 10 degrees of slope at 10 m/min for 5 minutes, and the intensity of the exercise was increased by 1 m/min every 1 minute up to the highest speed of 25 m/min.

The subject of a further test is C2C12 cells. Nature of the test: Intracellular ROS production in C2C12 cells (DCF-DA). Type of test: cell-based, mice. The note with it: oxidative stress by 50 μM TBHP, 1 h pretreatment with test substance. As to the method:
C2C12 cells were dispensed into a 96-well plate at 1×10^4 cells/well and stabilized for 24 hours. Subsequently, the cells were cultured for 1 hour after exchanging with the culture medium with the myocyte differentiation medium containing each test substance. After 1 hour, the cells were washed with PBS and cultured further for 3 hours with a culture medium containing 50 μM tert-butyl hydrogen peroxide (TBHP), and the ROS level in the cells was measured using a DCF-DA assay kit (Abcam) according to the manufacturer's method.
In order to investigate the effect of each of the compositions according to Examples 1 to 4 on ROS production in C2C12 cells, ROS production was measured using 2′,7′-dichlorofluorescin diacetate (DCF-DA). DCF-DA was measured using the principle that it is oxidized by ROS in cells and is converted to DCF, which emits fluorescence.

Where [4] appears, read: non-exercise, 7 mg/kg BW, treadmill test.
Where [5] appears, read: treadmill exercise, 7 mg/kg BW (Cr 75 mg/kg BW).

`CN(CC(=O)O)C(=N)N.O` [Cr, Creatine monohydrate, reference compound]: in test [1], the “mRNA expression FNDC5” value came out at 1.83 ± 0.47, the “mRNA expression MHC1” value came out at 4.50 ± 1.43, the “mRNA expression MHC2A” value was found to be 1.74 ± 0.22 and the “mRNA expression MHC2B” value came to 1.10 ± 0.10. For the same compound, in test [1], the “mRNA expression MHC7” value came to 7.87 ± 2.66, the “mRNA expression PGC-1α” value is given as 1.54 ± 1.10 and the “mRNA expression PKB” value is given as 2.18 ± 0.51.

Take `CC(C)=CCC[C@](C)(O)C1CC[C@]2(C)C1[C@H](O)CC1[C@@]3(C)C[C@@H](O)C(OC4OC(CO)C(O)C(O)C4OC4OC(CO)C(O)C(O)C4O)C(C)(C)C3CC[C@]12C` (some centres unmarked) [Example 1, Gypenoside L]: in the test with ICR mice [2], the “Time to exhaustion” value amounted to 1193.4 ± 176.8 s. For the same compound, in the test on ICR mice [3] (setting [4]), the Exercise capacity is 1,583 ± 91 g and the “Time until exhaustion (sec)” value is recorded as 1,472 ± 66 sec. In the test with ICR mice [3] (setting [5]), the Exercise capacity is listed as 2,832 ± 119^+ g and the “Time until exhaustion (sec)” value is recorded as 2,393 ± 93^+ sec. Moreover, in test [1], the “mRNA expression FNDC5” value was determined as 2.97 ± 0.39, the “mRNA expression MHC1” value came to 10.30 ± 1.75, the “mRNA expression MHC2A” value was 1.54 ± 0.32 and the “mRNA expression MHC2B” value worked out at 1.20 ± 0.12. For the same compound, in test [1], the “mRNA expression MHC7” value is recorded as 1.80 ± 0.41, the “mRNA expression PGC-1α” value is listed as 11.75 ± 3.82 and the “mRNA expression PKB” value was 3.04 ± 0.46. Further, the “ROS production (fluorescence intensity)” value in the test with C2C12 cells was found to be 22.12 ± 0.70 fluorescence intensity.
